From US20090162351A1, “Transdiscal administration of inhibitors of p38 MAP kinase” (DePuy Spine, Inc., priority 2007, published 2009)
Read-outs that look alike come from different tables or passages of the source. One block for each molecule: values may come before it.

Columns and labels:
[1] = system: injured bovine cartilage explants
Description: Bovine articular cartilage was obtained from the knee joints of adult, eighteen to twenty-four month old animals and processed within twenty-four hours after sacrifice. […] Care was taken to consistently prepare the same thickness of bone layer. The cartilage-on-bone specimens were subjected to an impact. […] After each impact, the cartilage area with a visible indent of ˜0.5-1 mm in the center was punched out with a 3 mm diameter puncher and immediately soaked in PBS with 1× Antibiotic-Antimycotic. Throughout the impact procedure and preparation of specimens, the cartilage was kept moist using PBS to prevent tissue dehydration. The cartilage discs were sterilized through 3× one hour wash in PBS with 10× Antibiotic-Antimycotic followed by 1×0.5 hour wash in PBS with 1× Antibiotic-Antimycotic. After wash, the specimens were incubated with conditioned medium harvested from peripheral blood mononuclear cells (PBMC) stimulated with or without LPS and at the same time, were treated with or without compounds for five days at 37° C., 5% CO2. Culture medium was collected for GAG release, NO and PGE2 assays, and assessment for cytotoxicity.
Cell death was assessed by measuring the amount of lactate dehydrogenase (LDH) in the culture supernatant. 10-20 μl of culture medium was incubated with the reaction mixture from the Cytotoxicity Detection Kit (LDH, Roche), as described in Example III above. The amount of formazan formed was measured at 500 nm, which was proportional to the number of dead cells. Since no purified LDH was available for a standard curve at each measurement, an LDH level for 100% dead cells was measured in each experiment. The lysate for the dead cells was prepared as follows: Chondrocytes were enzymatically isolated as described earlier and about 0.1 million cells that were equivalent to the number of cells contained in a 3-mm punch of fresh cartilage explant were lysed in 1 ml of PBS with 1% Triton-100. Approximately 10-20 μl of the lysate was used in the assay as killed cell control. […]

[2] = system: NO production in injured bovine cartilage explants; test: Drop tower model: NO production in injured cartilage explants; assay type: cell-based; settings: for inhibition at 10 µM: Bos taurus, injured cartilage explants; for effect on NO production (in words): drop tower model, cocktail of cytokines
Method: (§1) In the second method, the explants were cultured at 37° C., 5% CO2 either in stimulated or non-stimulated conditioned medium as described above or in defined medium containing DMEM supplemented with 1% FCS, 1× insulin-transferrin-sodium selenite media supplement and Antibiotics-Antimycotics in the presence or absence of a cocktail of cytokines containing 10 ng/ml of IL-1β, 100 ng/ml of TNFα and 5 ng/ml of IFN-γ. The compounds were solubilized in H2O, Ethanol or DMSO (10^−2 M) according to suppliers' instructions and further diluted with either conditioned medium stimulated with or without LPS to the required concentrations. DMSO concentrations in the culture media never exceeded 1%. This concentration of DMSO has no effect on cartilage proteoglycan metabolism in response to cytokines. The injured and noninjured cartilage explants were treated with compound-containing medium for three to five days. The specimens were first treated with compounds at desired concentrations at 37° C. for one hour and then incubated for three to five days in the absence or presence of the cocktail of cytokines. At the end of the incubation, media and cartilage samples were harvested and frozen for further analysis.
Nitrate/Nitrite was measured using the Griess reaction (Green L. C. et al., “Analysis of Nitrate, Nitrite, and [15N]nitrate in Biological Fluids,” Anal. Biochem. 126: 131-138 (1982)) with a Nitrate/Nitrite Colorimetric Assay Kit (Cayman Chemicals), as described in Example III above.

[3] = target: p38α MAP kinase (h-p38α) (Homo sapiens, UniProt Q16539); test: p38α MAP kinase inhibition (direct enzyme assay); assay type: biochemical; settings: read-out: inhibitor of p38a MAP kinase, IC50
[4] = target: T1, COX2 (Homo sapiens, UniProt P35354); test: COX2 inhibition; assay type: biochemical; settings: read-out: inhibitor of COX2, IC50
T1 sequence (P35354 18-604): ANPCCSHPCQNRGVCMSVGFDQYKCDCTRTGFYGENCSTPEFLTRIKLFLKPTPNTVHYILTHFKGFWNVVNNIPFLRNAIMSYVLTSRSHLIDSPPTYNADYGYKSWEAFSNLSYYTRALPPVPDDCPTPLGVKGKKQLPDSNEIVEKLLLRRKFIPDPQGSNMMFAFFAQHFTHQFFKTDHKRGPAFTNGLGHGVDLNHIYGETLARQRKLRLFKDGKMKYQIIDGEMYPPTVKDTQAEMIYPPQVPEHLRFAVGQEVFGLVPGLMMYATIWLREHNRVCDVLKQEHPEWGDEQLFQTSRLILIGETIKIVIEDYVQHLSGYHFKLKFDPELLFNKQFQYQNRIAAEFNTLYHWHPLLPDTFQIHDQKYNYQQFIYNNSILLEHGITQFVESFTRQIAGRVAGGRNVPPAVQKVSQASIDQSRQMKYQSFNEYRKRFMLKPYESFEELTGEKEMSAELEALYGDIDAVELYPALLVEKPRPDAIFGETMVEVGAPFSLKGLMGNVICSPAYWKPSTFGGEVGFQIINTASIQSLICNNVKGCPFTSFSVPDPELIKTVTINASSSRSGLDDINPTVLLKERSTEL

[5] = system: PGE2 synthesis in injured bovine cartilage explants; test: Drop tower model: PGE2 synthesis in injured cartilage explants; assay type: cell-based; settings: for inhibition at 1 µM / inhibition at 10 µM: Bos taurus, injured cartilage explants; for effect on PGE2 synthesis (in words): drop tower model, cocktail of cytokines
Method: as §1
PGE2 was measured with STAT-Prostaglandin E2 EIA ELISA kit (Cayman Biochemicals), as described in Example III above. The antibody-PGE2 complex binds to a goat polyclonal anti-mouse IgG that has been previously attached to the well. After washing to remove any unbound reagents, para-nitrophenyl phosphate (pNPP) was added to the well. The product of this enzymatic reaction absorbs strongly at 412 nm. Because of the large range in response to IL-1β and other cytokines, PGE2 values were converted to log scale prior to doing t-tests.

[6] = target: COX1 (Homo sapiens, UniProt P23219); test: COX1 inhibition; assay type: biochemical; settings: read-out: inhibitor of COX1, IC50
[7] = system: aggrecan and collagen type 2 mRNA in bovine AF and NP cells; test: 3D in vitro disc cell model: Taqman gene expression; assay type: cell-based; settings: 10 ng/ml IL-1β; inhibitor 1 μM, rhGDF-5 200 ng/ml
Description: Three-dimensional in vitro annulus fibrosis (AF) and nucleus pulposus (NP) models were established to investigate proteoglycan modulation and changes in gene expression in response to inflammatory cytokines such as interleukin-1 (e.g., IL-1β) and potential therapeutic agents such as growth and differentiation factor (GDF-5), and p38 MAP kinase inhibitors. AF and NP cells from bovine caudal discs were isolated by enzymatic digestion and seeded (2×10^6 cells/cm^2) onto Millipore CM filters coated with Collagen Type II and cultured in DMEM/20% heat-inactivated FBS, 100 ug/ml ascorbic acid and 5 ng/ml TGFβ1. […] Results were evaluated by histology (Tol. Blue staining was used to observe matrix production). Dimethylmethylene blue (DMMB) was used to detect sulphated glycosaminoglycans in a GAG/DNA assay. Taqman analysis was performed on aggrecans (AGG), collagen type 1 (col-1), collagen type 2 (col-2), and MMP 3, MMP 9 and MMP 13. In FIGS. 19A-C and 20A-C, annulus fibrosus and nucleus pulposus cells from bovine caudal discs were isolated by enzymatic digestion and seeded (2×10^6 cells/cm2) onto Millipore CM filters coated with Collagen Type II and cultured in DMEM/20% heat-inactivated FBS/100 ug/ml ascorbic acid and 5 ng/ml TGF-β1.

[8] = system: LPS-induced TNF in human peripheral blood mononuclear cells (hPBMC); test: LPS-induced TNF in hPBMC; assay type: cell-based; settings: read-out: inhibitor of LPS-induced TNF hPBMC, IC50
[9] = target: p38a MAP kinase (Homo sapiens, UniProt Q16539); test: Binding to p38a MAP kinase; settings: read-out: binds p38a MAP kinase, Kd
[10] = Water solubility; assay type: physicochemical
[11] = system: TNFα in human whole blood; test: TNFα inhibition, human whole blood assay (h-WBA / HWB); assay type: cell-based
[12] = target: CYP2C9 (Homo sapiens, UniProt P11712); test: CYP2C9 inhibition; assay type: in vitro ADME
[13] = Rat PK; assay type: in vivo
[14] = system: 6 CYP450; test: Inhibition of 6 CYP450; assay type: in vitro ADME

Chain of p38α MAP kinase (h-p38α) (Q16539 whole entry): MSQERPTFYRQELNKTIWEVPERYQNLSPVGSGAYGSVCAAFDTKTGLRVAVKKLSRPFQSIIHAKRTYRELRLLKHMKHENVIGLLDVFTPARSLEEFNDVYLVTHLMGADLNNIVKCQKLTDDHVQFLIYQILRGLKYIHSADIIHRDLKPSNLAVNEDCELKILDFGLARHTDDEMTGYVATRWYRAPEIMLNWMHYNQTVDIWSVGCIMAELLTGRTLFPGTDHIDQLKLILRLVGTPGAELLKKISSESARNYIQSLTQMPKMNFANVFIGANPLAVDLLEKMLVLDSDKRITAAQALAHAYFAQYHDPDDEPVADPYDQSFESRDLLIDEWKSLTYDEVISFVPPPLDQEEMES
Chain of COX1 (P23219 24-599): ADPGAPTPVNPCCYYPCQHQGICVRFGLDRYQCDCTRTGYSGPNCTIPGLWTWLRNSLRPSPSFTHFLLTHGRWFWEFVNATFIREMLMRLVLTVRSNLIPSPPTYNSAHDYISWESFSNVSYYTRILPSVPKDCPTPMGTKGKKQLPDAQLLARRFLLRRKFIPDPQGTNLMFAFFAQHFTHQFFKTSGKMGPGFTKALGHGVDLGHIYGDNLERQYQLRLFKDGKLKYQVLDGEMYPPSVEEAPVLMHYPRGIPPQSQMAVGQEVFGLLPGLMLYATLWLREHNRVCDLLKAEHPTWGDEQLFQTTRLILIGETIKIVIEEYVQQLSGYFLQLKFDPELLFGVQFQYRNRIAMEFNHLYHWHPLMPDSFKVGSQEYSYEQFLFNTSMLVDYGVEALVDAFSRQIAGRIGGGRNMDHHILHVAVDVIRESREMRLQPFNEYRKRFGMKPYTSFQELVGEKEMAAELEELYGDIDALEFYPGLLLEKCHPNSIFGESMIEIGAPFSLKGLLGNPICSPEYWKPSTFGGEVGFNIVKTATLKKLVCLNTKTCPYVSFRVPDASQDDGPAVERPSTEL
Chain of CYP2C9 (P11712 whole entry): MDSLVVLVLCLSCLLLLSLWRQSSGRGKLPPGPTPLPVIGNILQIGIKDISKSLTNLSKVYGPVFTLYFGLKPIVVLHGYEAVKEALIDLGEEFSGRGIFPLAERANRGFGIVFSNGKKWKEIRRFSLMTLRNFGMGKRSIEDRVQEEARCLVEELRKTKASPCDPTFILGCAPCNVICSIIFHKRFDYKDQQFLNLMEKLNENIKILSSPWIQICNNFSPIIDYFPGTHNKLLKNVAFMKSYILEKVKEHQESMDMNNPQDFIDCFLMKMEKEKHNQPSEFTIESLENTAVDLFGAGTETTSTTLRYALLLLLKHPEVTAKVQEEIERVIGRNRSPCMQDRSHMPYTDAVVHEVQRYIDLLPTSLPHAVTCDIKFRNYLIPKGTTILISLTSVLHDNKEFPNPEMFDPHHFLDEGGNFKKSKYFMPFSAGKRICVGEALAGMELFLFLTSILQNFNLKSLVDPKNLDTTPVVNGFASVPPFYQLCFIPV
Chain of p38a MAP kinase (Q16539 whole entry): as the sequence (Q16539 whole entry) above

Compound: CC(=O)Oc1cccc2c1C(=O)c1c(OC(C)=O)cc(C(=O)O)cc1C2=O [Diacerein, reference compound]
cytotoxicity, LDH (in words) [1]: tolerant

IC50 [3]: 20 nM | IC50 [4]: > 10000 nM | IC50 [6]: > 10000 nM | IC50 ([8]; Homo sapiens, PBMC): 4 nM | Kd [9]: 9 nM | pH at which soluble [10]: < 2 | water solubility (in words) [10]: poor water solubility | solubility in 0.1 M HCl (in words) ([10]; 0.1 M HCl): soluble in 0.1 M HCl
Compound: OCCC#Cc1nc(-c2ccc(F)cc2)c(-c2ccncc2)n1CCCc1ccccc1 [JNJ 3026582 (RWJ 67657), 4-[4-(4-fluorophenyl)-1-(3-phenylpropyl)-5-(4-pyridinyl)-1H-imidazol-2-yl]-3-butyn-1-ol]
inhibition at 10 µM [2]: 66% | effect on NO production (in words) [2]: dose-dependently inhibited | inhibition at 1 µM [5]: 33% | inhibition at 10 µM [5]: 90% | effect on PGE2 synthesis (in words) [5]: dose-dependently inhibited | gene expression of Agg and Col 2 (in words) [7]: restored

IC50 [3]: 1 nM | IC50 ([11]; Homo sapiens, read-out: inhibitor of TNF human whole blood (HWB), IC50): 5 nM | IC50 [4]: > 10000 nM | IC50 [6]: > 10000 nM | water solubility (in words) [10]: poor water solubility | solubility ([10]; water (aqueous, simulated gastric fluid), at pH 2, read-out: solubility): > 1 mg/mL
Compound: C[C@H](Nc1nccc(-c2c(-c3ccc(F)cc3)nc3nc(N)ccn23)n1)c1ccccc1 [JNJ 7583979 (RWJ 351958)]

Compound: CC(=O)N1CCN(c2c(-c3ccncc3)c(-c3ccc(F)cc3)c(C#N)n2C)CC1 [JNJ 17089540 (RWJ 669307)]
effect on NO production (in words) [2]: dose-dependently inhibited | IC50 [3]: 2000 nM | IC50 [4]: > 10000 nM | effect on PGE2 synthesis (in words) [5]: dose-dependently inhibited | IC50 [6]: > 10000 nM | IC50 [8]: 220 nM | water solubility ([10]; of HCl salt): > 100 mg/mL

Compound: CO[C@H]1C[C@@H]2CC[C@@H](C)[C@@](O)(O2)C(=O)C(=O)N2CCCC[C@H]2C(=O)O[C@H]([C@H](C)C[C@@H]2CC[C@@H](O)[C@H](OC)C2)CC(=O)[C@H](C)/C=C(\C)[C@@H](O)[C@@H](OC)C(=O)[C@H](C)C[C@H](C)/C=C/C=C/C=C/1C [Rapamycin, reference compound]
cytotoxicity, LDH (in words) [1]: little cytotoxicity

Compound: O=C(O)c1cc(O)c2c(c1)C(=O)c1cccc(O)c1C2=O [Rhein, reference compound]
cytotoxicity, LDH (in words) [1]: tolerant

Compound: C[C@@H]1CN(Cc2ccc(F)cc2)[C@@H](C)CN1C(=O)c1cc2cc(C(=O)C(=O)N(C)C)[nH]c2cc1Cl [SCIO-282 (SD 282)]
effect on NO production (in words) [2]: dose-dependently inhibited | EC50 ([11]; 10× diluted, read-out: inhibits TNFα h-WBA (EC50)): 70 nM | IC50 [12]: 500 nM | effect on PGE2 synthesis (in words) [5]: dose-dependently inhibited | Rat (F) PK, F % ([13]; female rat): 46% | water solubility (in words) [10]: limited water solubility

EC50 ([11]; Homo sapiens, 10× diluted, read-out: inhibits TNFα h-WBA (EC50)): 1600 nM | EC50 ([11]; Homo sapiens, Table 2, read-out: TNFα Inhibition h-WBA (EC50)): 1600 nM | IC50 [14]: > 1000 nM | IC50 ([14]; human, Table 2): > 1000 nM | half-life ([13]; in vivo, female rat, read-out: Rat (F) PK, t1/2 (converted)): 60 min | bioavailability ([13]; in vivo, male rat, read-out: Rat (M) PK, F %): 15% | half-life ([13]; in vivo, male rat, read-out: Rat (M) PK, t1/2 (converted)): 30 min
Compound: C[C@@H]1CN(Cc2ccc(F)cc2)[C@@H](C)CN1C(=O)c1cc2c(C(=O)C(=O)N(C)C)cn(C)c2cc1Cl [SCIO-469 (SD 469)]
effect on NO production (in words) [2]: inhibited | effect on PGE2 synthesis (in words) [5]: inhibited

Compound: COc1ccc(-n2nc(CCC(=O)N(C)O)cc2-c2ccc(Cl)cc2)cc1 [Tepoxalin, reference compound]
inhibition at 10 µM [2]: 100% | inhibition at 1 µM [5]: 77% | inhibition at 10 µM [5]: 90%
